Test results published in patent publication US4935509A (priority 1989, dated 1990).

Tests used:
P388 wild-type cells = assay: MTT cell count (ID50), P388 wild-type leukemia cells in vitro; type: cell-based, murine; settings: Mus musculus, P388, 120 h, read-out: ID50 P388/Wild
Description: (§1) In the various assays set forth below the colorimetric determination of the number of cells was carried out by the following procedure using MTT.
(§2) 3-(4,5-dimethylthiazol-2-yl)-2,5-dipenyl tetrazolium bromide (MTT) was prepared as a 5 mg/ml stock solution in phosphate buffered saline, filtered through a 0.22 μm filter and stored for up to two weeks at 4° C. while protected from light. For use in the assay it was diluted to 1 mg/ml in a pH 7.2 solution of phenol-red-free RPMI 1640 tissue culture medium supplemented with 1 mM sodium pyruvate and 50 μg/ml gentamycin. The assay was done in flat bottomed 96-well microtiter plates. Culture medium was removed from the wells by inverting and blotting the plate, fifty μl of MTT solution was added to the cells in each well, and each plate was incubated at 37° C. in an atmosphere of 5% CO2 in air. After incubation, each plate was centrifuged for 5 minutes at 8000×g and excess MTT removed by inverting and blotting. Fifty μl of 95% ethanol was added to each well and the plate was shaken (speed 6.5 for 15 minutes) to solubilize the formazan in each well. The optical density of each well was measured using an automatic plate reader with a test wavelength of 570 nm and a reference wavelength of 630 nm.
(§3) The differential in vitro activity of the above compounds as compared to vincristine and vinblastine with regard to P388 wild-type and P388 multiple-drug resistant leukemia was carried out by the following procedure.
(§4) Tissue culture-adapted lines of the P388 wild-type and P388 multiple-drug resistant cells (principally resistant to adriamycin) were obtained from the American Type Culture Collection, Rockville, MD. Experiments were conducted in 96-well microtiter plates with 300 cells from either line seeded in a volume of 200 μl of tissue culture medium (RPMI 1640 supplemented to 10% (v/v) with heat-inactivated fetal bovine serum (FBS) and to […] with 1-glutamine). Cells and varying log^10 dilutions of test compound were added to triplicate sets of wells on the same day and cultures were incubated for 5 days at 37° C. in a humidified atmosphere of 5% CO2 in air. The number of cells per well at the end of the experiment was determined colorimetrically by the reduction of MTT as described above.

P388 leukemia [1] = assay: In vivo effect against P388 leukemia in mice (TD50, ED50, T.I.); settings: calculated from TD50 and ED50
Source text: (§5) The in vivo effect of the novel compounds of this invention against P388 leukemia as compared to vinblastine and vincristine, were compared by the following procedure.
(§6) P388 murine leukemia cells were obtained from Southern Research Institute, Birmingham, Ala., and were maintained by serial i.p. passage in C57BL/6 mice. Female (C57BL/6×DBA/2) F1 (BDF) mice of 6-8 weeks of age from Jackson Laboratories, Bar Harbor, Maine, received 1×10^6 P388 cells by i.p. inoculation on day 0. Compounds were dissolved in saline and administered i.p. to 10 tumor-bearing mice per dose level on days 0-4 and 7-9 using 5 to 10 log2 dilutions from a concentration known to be toxic. […] The therapeutic index (T.I.) for each compound was calculated by the formula: [formula]

[2] = as above; settings: mouse, in vivo, ip
Source text: as §5, §6

OM-1 = assay: MTT cell count (ID50), human colon cancer cell line OM-1; type: cell-based; settings: 144 h, read-out: ID50 OM-1
Description: as §1, §2
(§7) The in vitro effects of the novel compounds as compared to vinblastine and vincristine on three human colon cancer cell lines and one non-transformedhuman cell line were determined by the following procedure.
(§8) The non-transformed human fibroblast cell line, WI-38 and two of the human colon cancer cell lines, COLO-320-DM and HT-29, were obtained from the American Type Culture Collection, Rockville, MD and the third human colon cancer cell line, OM-1, was supplied by E. I. du Pont de Nemours and Co., Inc., Glenholden, PA. Both OM-1 and COLO-320-DM cells were maintained by serial passage in RPMI 1640 tissue culture medium supplemented to 10% (v/v) with heat-inactivated FBS. HT-29 cells were similarly maintained in McCoys 5A tissue culture medium supplemented with 10% heat-inactivated FBS. COLO-320-DM cells were detached by gentle scraping while HT-29 and OM-1 cells were detached using 0.25% trypsin and 0.05% trypsin, 0.5 mM EDTA solutions respectively. All cultures were incubated at 37° C. in a humidified environment of 5% CO2 in air. Experiments were conducted in 96-well flat-bottomed plates. The initial cell seeds per well for each cell line were 4,000 for WI- 38; 2,000 for COLO-320-DM; 750 for HT-29; and 3,000 for OM-1, each in the appropriate tissue culture medium. Cells were plated 24 hours before test compound was added to allow cells to recover from the effects of physical scraping and trypsinization. Varying log10 dilutions of drug were added to triplicate sets of wells and cultures were incubated for 6 days at 37° in a humidified atmosphere of 5% CO2 in air. The number of cells per well at the end of the experiment was determined colorimetrically by the reduction of MTT as described above and the results for each compounds shown in Table II. For purposes of comparison, the concentration of each test compound required to reduce the final cell number to one-half of the number in drug-free control cultures (ID50) is shown in Table II.

COLO-320-DM = assay: MTT cell count (ID50), human colon cancer cell line COLO-320-DM; type: cell-based; settings: 144 h, read-out: ID50 COLO-320
Description: as §1, §2, §7, §8

WI-38 fibroblast = assay: MTT cell count (ID50), non-transformed human fibroblast cell line WI-38; type: cell-based; parameters: unit not given here; settings: 6 days incubation
Description: as §1, §2, §7, §8

P388 leukemia [3] = assay: Increase in mean survival time of mice bearing P388 leukemia; type: in vivo; settings: 0.12 mg/kg (optimal dose), i.p.
Description: The efficacy of the remaining compounds is clearly documented by the fact that each increased the mean survival time of tumor-bearing mice in a dose-dependentmanner. […] The percent increase in mean survival time (MST) which appears in Table IV was calculated by the following formula: [formula]

[4] = system: P388 multiple-drug resistant cells; assay: cells; type: cell-based, murine
Description: as §1, §2, §3, §4

HT-29 = assay: MTT cell count (ID50), human colon cancer cell line HT-29; type: cell-based; settings: HT-29, 144 h, read-out: ID50 HT-29
Description: as §1, §2, §7, §8

Question: What does the source list for CC[C@]12C=CCN3CC[C@@]4(c5cc([C@@]6(C(=O)OC)C[C@H]7CN(CCc8c6[nH]c6ccccc86)C[C@@H]6CCCC[C@H]76)c(OC)cc5N(C)[C@H]4[C@@](O)(C(=O)OC)[C@@H]1OC(C)=O)[C@@H]32 [E, (4aR,8aS,9R,11S)-15-[1,2,4,4a,5,6,7,8,8a,9,10,11,12,17-tetradecahydro-11-(methoxycarbonyl)-indolo(2',3':6,7,)azonino(1,2,3-bc)isoquinolin-11-yl] vindoline]?
Answer: IC50 (P388 wild-type cells): 68 nM; T.I. (therapeutic index) (P388 leukemia [1]): < 1; LD50 [2]: 0.18 mg/kg; IC50 (OM-1): 400 nM; IC50 (COLO-320-DM): 300 nM; ID50 WI-38 fibroblast (WI-38 fibroblast): 3 × 10^-7; Mean Survival Time (P388 leukemia [3]; vehicle 9.6 days (A), 10.1 days (E)): 21.5 days; Increase in MST (P388 leukemia [3]; vs vehicle): 113%; Fold-resistance ([4]; ID50 resistant cell line divided by ID50 wildtype cell line, 7200 min): 6; IC50 ([4]; Mus musculus, P388, 120 h, read-out: ID50 P3/88/resist.): 430 nM; IC50 (HT-29): 300 nM
